Publication PMC5218480 (PLoS ONE, 2017)

Tested on: MV-4-11 cells
Assay: Gene expression microarray analysis (Affymetrix PrimeView) and GSEA
Format: cell-based, human
Design: RFU PODN (11730768_x_at) / Fold change /veh PODN (11730768_x_at) / RFU LINC00158 (11744669_a_at) / Fold change /veh LINC00158 (11744669_a_at) / RFU DUSP10 (11751237_a_at) / Fold change /veh DUSP10 (11751237_a_at) / RFU ID3 (11757404_x_at) / Fold change /veh ID3 (11757404_x_at) / RFU PLEKHG5 (11737974_s_at) / Fold change /veh PLEKHG5 (11737974_s_at) / RFU LRRC4B (11730491_at) / Fold change /veh LRRC4B (11730491_at) / RFU GIMAP4 (11747438_a_at) / Fold change /veh GIMAP4 (11747438_a_at) / RFU KRT8 (11758183_x_at) / Fold change /veh KRT8 (11758183_x_at) / RFU CNN1 (11734310_a_at) / Fold change /veh CNN1 (11734310_a_at) / RFU VPS37D (11726825_at) / Fold change /veh VPS37D (11726825_at) / RFU C10orf10 (11716522_x_at) / Fold change /veh C10orf10 (11716522_x_at) / RFU KIR2DL2 /// KIR2DL4 /// KIR2DL5A /// KIR2DL5B /// KIR2DS1 /// KIR2DS2 /// KIR2DS3 /// KIR2DS4 /// KIR3DL3 /// KIR3DL3 /// KIR3DS1 (11738374_at) / Fold change /veh KIR2DL2 /// KIR2DL4 /// KIR2DL5A /// KIR2DL5B /// KIR2DS1 /// KIR2DS2 /// KIR2DS3 /// KIR2DS4 /// KIR3DL3 /// KIR3DL3 /// KIR3DS1 (11738374_at) / RFU C1QL1 (11718748_at) / Fold change /veh C1QL1 (11718748_at) / RFU TMPRSS4 (11747572_a_at) / Fold change /veh TMPRSS4 (11747572_a_at) / RFU HAMP (11756126_x_at) / Fold change /veh HAMP (11756126_x_at) / RFU RNFT2 (11725882_a_at) / Fold change /veh RNFT2 (11725882_a_at) / RFU NR4A2 (11747474_a_at) / Fold change /veh NR4A2 (11747474_a_at) / RFU ABCC12 (11746883_a_at) / Fold change /veh ABCC12 (11746883_a_at) / RFU TMEM136 (11760407_x_at) / Fold change /veh TMEM136 (11760407_x_at) / RFU CLDN22 /// WWC2 (11732394_at) / Fold change /veh CLDN22 /// WWC2 (11732394_at) / RFU HLA-DPB1 (11760878_x_at) / Fold change /veh HLA-DPB1 (11760878_x_at) / RFU SPINT1 (11716480_a_at) / Fold change /veh SPINT1 (11716480_a_at) / RFU GAP43 (11754022_s_at) / Fold change /veh GAP43 (11754022_s_at) / RFU A4GNT (11735810_at) / Fold change /veh A4GNT (11735810_at) / RFU PRB3 (11715151_x_at) / Fold change /veh PRB3 (11715151_x_at) / RFU TUBB4B (11761932_at) / Fold change /veh TUBB4B (11761932_at) / RFU CAPN14 (11732068_a_at) / Fold change /veh CAPN14 (11732068_a_at) / RFU TMCC2 (11721928_a_at) / Fold change /veh TMCC2 (11721928_a_at) / RFU IRGQ (11745062_a_at) / Fold change /veh IRGQ (11745062_a_at) / RFU FAM174B (11720279_a_at) / Fold change /veh FAM174B (11720279_a_at) / RFU TMPRSS4 (11748680_a_at) / Fold change /veh TMPRSS4 (11748680_a_at) / RFU FAM212B (11763350_a_at) / Fold change /veh FAM212B (11763350_a_at) / RFU PLEKHG5 (11743358_a_at) / Fold change /veh PLEKHG5 (11743358_a_at) / RFU ZSCAN30 (11745921_a_at) / Fold change /veh ZSCAN30 (11745921_a_at) / RFU CMKLR1 (11741424_a_at) / Fold change /veh CMKLR1 (11741424_a_at) / RFU LOC101060620 /// MAPK8IP1 (11723275_at) / Fold change /veh LOC101060620 /// MAPK8IP1 (11723275_at) / RFU SPTSSB (11747773_x_at) / Fold change /veh SPTSSB (11747773_x_at) / RFU PRSS12 (11739890_at) / Fold change /veh PRSS12 (11739890_at) / RFU BIN1 (11741810_x_at) / Fold change /veh BIN1 (11741810_x_at) / RFU WNT11 (11732464_a_at) / Fold change /veh WNT11 (11732464_a_at) / RFU C10orf10 (11716521_a_at) / Fold change /veh C10orf10 (11716521_a_at) / RFU C5orf56 (11738089_at) / Fold change /veh C5orf56 (11738089_at) / RFU CYB561 (11721691_x_at) / Fold change /veh CYB561 (11721691_x_at) / RFU ANKRD19P (11752326_a_at) / Fold change /veh ANKRD19P (11752326_a_at) / RFU OR2T12 /// OR2T33 /// OR2T8 (11738714_s_at) / Fold change /veh OR2T12 /// OR2T33 /// OR2T8 (11738714_s_at) / RFU VCAN (11748164_a_at) / Fold change /veh VCAN (11748164_a_at) / RFU JSRP1 (11732532_at) / Fold change /veh JSRP1 (11732532_at) / RFU KRTAP10-11 (11738290_x_at) / Fold change /veh KRTAP10-11 (11738290_x_at) / RFU MYO3A (11730013_a_at) / Fold change /veh MYO3A (11730013_a_at) / RFU EBF3 (11725865_a_at) / Fold change /veh EBF3 (11725865_a_at) / RFU CAMK2N1 (11719241_x_at) / Fold change /veh CAMK2N1 (11719241_x_at) / RFU C5orf56 (11738088_a_at) / Fold change /veh C5orf56 (11738088_a_at) / RFU OLFML3 (11715873_a_at) / Fold change /veh OLFML3 (11715873_a_at) / RFU LOC100653217 /// NTM (11731650_a_at) / Fold change /veh LOC100653217 /// NTM (11731650_a_at) / RFU MAPK11 (11762145_a_at) / Fold change /veh MAPK11 (11762145_a_at) / RFU FIZ1 (11724087_x_at) / Fold change /veh FIZ1 (11724087_x_at) / RFU OASL (11726364_x_at) / Fold change /veh OASL (11726364_x_at) / RFU SOX15 (11748057_x_at) / Fold change /veh SOX15 (11748057_x_at) / RFU CD79A (11719716_a_at) / Fold change /veh CD79A (11719716_a_at) / RFU HIST1H1D (11736915_at) / Fold change /veh HIST1H1D (11736915_at) / RFU CASKIN2 (11723855_a_at) / Fold change /veh CASKIN2 (11723855_a_at) / RFU LOC730098 (11760151_x_at) / Fold change /veh LOC730098 (11760151_x_at) / RFU OR4N2 (11742367_at) / Fold change /veh OR4N2 (11742367_at) / RFU PRRT2 (11749266_a_at) / Fold change /veh PRRT2 (11749266_a_at) / RFU SNX32 (11753110_a_at) / Fold change /veh SNX32 (11753110_a_at) / RFU CDHR5 (11726645_a_at) / Fold change /veh CDHR5 (11726645_a_at) / RFU RCAN1 (11760418_a_at) / Fold change /veh RCAN1 (11760418_a_at) / RFU FAM167A (11723789_a_at) / Fold change /veh FAM167A (11723789_a_at) / RFU FAM26E (11764081_at) / Fold change /veh FAM26E (11764081_at) / RFU ISYNA1 (11749810_s_at) / Fold change /veh ISYNA1 (11749810_s_at) / RFU ACY1 (11761880_at) / Fold change /veh ACY1 (11761880_at) / RFU 11764098_at / Fold change /veh 11764098_at / RFU SAMD14 (11745864_x_at) / Fold change /veh SAMD14 (11745864_x_at) / RFU NPB (11741838_a_at) / Fold change /veh NPB (11741838_a_at) / RFU TMPRSS6 (11731388_a_at) / Fold change /veh TMPRSS6 (11731388_a_at) / RFU KRTAP10-2 (11738614_at) / Fold change /veh KRTAP10-2 (11738614_at) / RFU ARHGAP8 /// PRR5-ARHGAP8 (11727945_x_at) / Fold change /veh ARHGAP8 /// PRR5-ARHGAP8 (11727945_x_at) / RFU KRTAP5-7 /// NADSYN1 (11734609_at) / Fold change /veh KRTAP5-7 /// NADSYN1 (11734609_at) / RFU RASL12 (11751679_a_at) / Fold change /veh RASL12 (11751679_a_at) / RFU CDKN2B (11736163_a_at) / Fold change /veh CDKN2B (11736163_a_at) / RFU PRF1 (11729649_at) / Fold change /veh PRF1 (11729649_at) / RFU, ZNF638 /// ZNF638-IT1 / Fold change vs veh, ZNF638 /// ZNF638-IT1 / RFU, PANK3 / Fold change vs veh, PANK3 / RFU, SH3YL1 / Fold change vs veh, SH3YL1 / RFU, ZEB2 / Fold change vs veh, ZEB2 / RFU, NRIP1 / Fold change vs veh, NRIP1 / RFU, PTTG1IP / Fold change vs veh, PTTG1IP / RFU, CAPN2 / Fold change vs veh, CAPN2 / RFU, MED14 / Fold change vs veh, MED14 / RFU, SNORA58 / Fold change vs veh, SNORA58 / RFU, C1orf63 / Fold change vs veh, C1orf63 / RFU, LRRFIP1 / Fold change vs veh, LRRFIP1 / RFU, NDUFAF7 / Fold change vs veh, NDUFAF7 / RFU, SLC12A2 / Fold change vs veh, SLC12A2 / RFU, IBTK / Fold change vs veh, IBTK / RFU, ESF1 / Fold change vs veh, ESF1 / Fold change vs veh, TMEM50B / RFU, TAOK1 / Fold change vs veh, TAOK1 / RFU, ACBD3 / Fold change vs veh, ACBD3 / RFU, TMA16 / Fold change vs veh, TMA16 / RFU, RWDD3 / Fold change vs veh, RWDD3 / RFU, BCAT1 / Fold change vs veh, BCAT1 / RFU, EDEM3 / Fold change vs veh, EDEM3 / RFU, TMEM33 / Fold change vs veh, TMEM33 / RFU, WDR75 / Fold change vs veh, WDR75 / RFU, AHCTF1 / Fold change vs veh, AHCTF1 / RFU, TFRC / Fold change vs veh, TFRC / RFU, ZDHHC17 / Fold change vs veh, ZDHHC17 / RFU, NOM1 / Fold change vs veh, NOM1 / RFU, ARL8B / Fold change vs veh, ARL8B / RFU, ZBTB11 / Fold change vs veh, ZBTB11 / RFU, TAMM41 / Fold change vs veh, TAMM41 / RFU, KIAA1704 /// LOC100996395 / Fold change vs veh, KIAA1704 /// LOC100996395 / RFU, ING1 / Fold change vs veh, ING1 / RFU, TRMT61B / Fold change vs veh, TRMT61B / RFU, FUBP3 / Fold change vs veh, FUBP3 / RFU, TP53 / Fold change vs veh, TP53 / RFU, TNKS2 / Fold change vs veh, TNKS2 / RFU, ZFP14 / Fold change vs veh, ZFP14 / RFU, ACTR2 / Fold change vs veh, ACTR2 / RFU, PPP3R1 / Fold change vs veh, PPP3R1 / RFU, PIK3R1 / Fold change vs veh, PIK3R1 / RFU, HNRNPA1 / Fold change vs veh, HNRNPA1 / RFU, RNF170 / Fold change vs veh, RNF170 / RFU, ZNF28 / Fold change vs veh, ZNF28 / RFU, RNGTT / Fold change vs veh, RNGTT / RFU, OGT / Fold change vs veh, OGT / RFU, BRD1 / Fold change vs veh, BRD1 / RFU, MARS / Fold change vs veh, MARS / RFU, ZNF655 / Fold change vs veh, ZNF655 / RFU, FAHD1 / Fold change vs veh, FAHD1 / RFU, BDP1 / Fold change vs veh, BDP1 / RFU, LRRCC1 / Fold change vs veh, LRRCC1 / RFU, ARID1A / Fold change vs veh, ARID1A / RFU, ZNF146 / Fold change vs veh, ZNF146 / RFU, ZNF330 / Fold change vs veh, ZNF330 / RFU, GPN3 / Fold change vs veh, GPN3 / RFU, C9orf123 / Fold change vs veh, C9orf123 / RFU, N4BP2L2 / Fold change vs veh, N4BP2L2 / RFU, ARFIP1 / Fold change vs veh, ARFIP1 / RFU, FAM179B / Fold change vs veh, FAM179B / RFU, BCL10 / Fold change vs veh, BCL10 / RFU, UHRF1BP1L / Fold change vs veh, UHRF1BP1L / RFU, BET1 / Fold change vs veh, BET1 / RFU, CNOT2 / Fold change vs veh, CNOT2 / RFU, ZNF268 / Fold change vs veh, ZNF268 / Fold change vs veh, ZNF507 / RFU, DGCR2 / Fold change vs veh, DGCR2 / RFU, WDSUB1 / Fold change vs veh, WDSUB1 / Fold change vs veh, HSP90B1 /// MIR3652 / RFU, ADSS / Fold change vs veh, ADSS / RFU, GK / Fold change vs veh, GK / RFU, ZNF148 / Fold change vs veh, ZNF148 / RFU, TAF9 / Fold change vs veh, TAF9 / RFU, SLC1A5 / Fold change vs veh, SLC1A5 / RFU, SLMO2 / Fold change vs veh, SLMO2 / RFU, ABCC4 / Fold change vs veh, ABCC4 / RFU, LOC101060439 /// RAP1B / Fold change vs veh, LOC101060439 /// RAP1B / RFU, RFX7 / Fold change vs veh, RFX7 / RFU, GTPBP10 / Fold change vs veh, GTPBP10 / RFU, CNEP1R1 / Fold change vs veh, CNEP1R1 / RFU, BIVM-ERCC5 /// ERCC5 / Fold change vs veh, BIVM-ERCC5 /// ERCC5 / RFU, ILF3 / Fold change vs veh, ILF3 / RFU 11762660_at / Fold change /veh 11762660_at / RFU VCAN (11757783_s_at) / Fold change /veh VCAN (11757783_s_at) / RFU DDX43 (11728927_at) / Fold change /veh DDX43 (11728927_at) / RFU KRT8 (11758188_x_at) / Fold change /veh KRT8 (11758188_x_at) / RFU NKD1 (11759106_at) / Fold change /veh NKD1 (11759106_at) / RFU SRD5A1 (11742802_a_at) / Fold change /veh SRD5A1 (11742802_a_at) / RFU TPSAB1 /// TPSB2 (11721975_s_at) / Fold change /veh TPSAB1 /// TPSB2 (11721975_s_at) / RFU GSTM3 (11746129_a_at) / Fold change /veh GSTM3 (11746129_a_at) / RFU IL23R (11737362_x_at) / Fold change /veh IL23R (11737362_x_at) / RFU TMEM51 (11727254_a_at) / Fold change /veh TMEM51 (11727254_a_at) / RFU PIWIL2 (11732686_x_at) / Fold change /veh PIWIL2 (11732686_x_at) / RFU ORM1 (11744905_x_at) / Fold change /veh ORM1 (11744905_x_at) / RFU CCDC152 (11743942_at) / Fold change /veh CCDC152 (11743942_at) / RFU ECM1 (11717891_a_at) / Fold change /veh ECM1 (11717891_a_at) / RFU IL23R (11748794_a_at) / Fold change /veh IL23R (11748794_a_at) / RFU TNFAIP8L3 (11732012_x_at) / Fold change /veh TNFAIP8L3 (11732012_x_at) / RFU MBOAT4 (11741988_at) / Fold change /veh MBOAT4 (11741988_at) / RFU 11764193_at / Fold change /veh 11764193_at / RFU TMEM53 (11763286_at) / Fold change /veh TMEM53 (11763286_at) / RFU MAGEB2 (11727129_at) / Fold change /veh MAGEB2 (11727129_at) / RFU TMEM200A (11744735_a_at) / Fold change /veh TMEM200A (11744735_a_at) / RFU CCDC152 (11751479_a_at) / Fold change /veh CCDC152 (11751479_a_at) / RFU FAM211A (11726209_a_at) / Fold change /veh FAM211A (11726209_a_at) / RFU RGS16 (11746705_a_at) / Fold change /veh RGS16 (11746705_a_at) / RFU VCAN (11755009_s_at) / Fold change /veh VCAN (11755009_s_at) / RFU RHOB (11743442_s_at) / Fold change /veh RHOB (11743442_s_at) / RFU RGS16 (11720943_a_at) / Fold change /veh RGS16 (11720943_a_at) / RFU RGS16 (11720944_at) / Fold change /veh RGS16 (11720944_at) / RFU, VPS4B / Fold change vs veh, VPS4B / RFU, CREB1 / Fold change vs veh, CREB1 / RFU, DNAJC13 / Fold change vs veh, DNAJC13 / RFU, GNAQ / Fold change vs veh, GNAQ / RFU, CDK5R1 / Fold change vs veh, CDK5R1 / RFU, ZRANB3 / Fold change vs veh, ZRANB3 / RFU, CUL4A / Fold change vs veh, CUL4A / RFU, CCNY / Fold change vs veh, CCNY / RFU, UFL1 / Fold change vs veh, UFL1 / RFU, COG3 / Fold change vs veh, COG3 / RFU, DIAPH2 / Fold change vs veh, DIAPH2 / RFU, SKA2 / Fold change vs veh, SKA2 / RFU, AFF3 / Fold change vs veh, AFF3 / RFU, LMF1 / Fold change vs veh, LMF1 / RFU, IPO11 / Fold change vs veh, IPO11 / RFU, DFFB / Fold change vs veh, DFFB / RFU, FOXP1 / Fold change vs veh, FOXP1 / RFU, CARD8 / Fold change vs veh, CARD8 / RFU, STRN3 / Fold change vs veh, STRN3 / RFU, ADK / Fold change vs veh, ADK / RFU, RASSF2 / Fold change vs veh, RASSF2 / RFU, WIPF1 / Fold change vs veh, WIPF1 / RFU, LARP1B / Fold change vs veh, LARP1B / RFU, RASA1 / Fold change vs veh, RASA1 / RFU, RB1 / Fold change vs veh, RB1 / RFU, PPFIA1 / Fold change vs veh, PPFIA1 / RFU, MAT2A / Fold change vs veh, MAT2A / RFU, CCT5 / Fold change vs veh, CCT5 / RFU, WDR92 / Fold change vs veh, WDR92 / RFU, CUX1 / Fold change vs veh, CUX1 / RFU, TTC7A / Fold change vs veh, TTC7A / RFU, TMEM135 / Fold change vs veh, TMEM135 / RFU, DEPTOR / Fold change vs veh, DEPTOR / RFU, CPM / Fold change vs veh, CPM / RFU, DNAJB6 / Fold change vs veh, DNAJB6 / RFU, CACNA2D3 / Fold change vs veh, CACNA2D3 / RFU, DTX4 / Fold change vs veh, DTX4 / RFU, TFCP2 / Fold change vs veh, TFCP2 / RFU, GMCL1 /// GMCL1P1 / Fold change vs veh, GMCL1 /// GMCL1P1 / RFU, AEBP2 / Fold change vs veh, AEBP2 / RFU, SNHG1 /// SNORD22 /// SNORD25 /// SNORD26 /// SNORD27 /// SNORD28 /// SNORD29 /// SNORD31 / Fold change vs veh, SNHG1 /// SNORD22 /// SNORD25 /// SNORD26 /// SNORD27 /// SNORD28 /// SNORD29 /// SNORD31 / Fold change (Aza/veh), C12orf56 (ProbeSet 11735607_a_at) / Fold change (ACY-1035/veh), C12orf56 (ProbeSet 11735607_a_at) / Fold change (Aza/veh), FGFR1OP (ProbeSet 11751329_s_at) / Fold change (ACY-1035/veh), FGFR1OP (ProbeSet 11751329_s_at) / Fold change (Aza/veh), VPS36 (ProbeSet 11739960_a_at) / Fold change (ACY-1035/veh), VPS36 (ProbeSet 11739960_a_at) / RFU SYPL1 (11715823_x_at) / Fold change /veh SYPL1 (11715823_x_at) / RFU IGFBP7 (11715501_s_at) / Fold change /veh IGFBP7 (11715501_s_at) / RFU REEP3 (11722064_at) / Fold change /veh REEP3 (11722064_at) / RFU IGLL1 (11728026_x_at) / Fold change /veh IGLL1 (11728026_x_at): dose or concentration left out as unconfirmed
Conditions: MV-4-11 cells, 48 hours

## Nc1ncn([C@@H]2O[C@H](CO)[C@@H](O)[C@H]2O)c(=O)n1 [azacitidine]
  Fold change /veh CNN1 (11734310_a_at): 1.15
